From ChEMBL document CHEMBL1126369, “(E)-1-alkyl-[2-(1H-azol-2-yl)vinyl]pyridinium salts: theoretical analysis, synthesis and evaluation of their interaction with choline acetyltransferase” (Bioorg Med Chem Lett, 1992)
pIC50: −log10 of the molar value.

Assays:
[1] = target: T1, Choline O-acetyltransferase (Gallus gallus) (UniProt Q90YJ9); assay: Inhibition of chick optic lobe choline acetyltransferase (ChAT) at 10e-4 M
T1 sequence (whole entry): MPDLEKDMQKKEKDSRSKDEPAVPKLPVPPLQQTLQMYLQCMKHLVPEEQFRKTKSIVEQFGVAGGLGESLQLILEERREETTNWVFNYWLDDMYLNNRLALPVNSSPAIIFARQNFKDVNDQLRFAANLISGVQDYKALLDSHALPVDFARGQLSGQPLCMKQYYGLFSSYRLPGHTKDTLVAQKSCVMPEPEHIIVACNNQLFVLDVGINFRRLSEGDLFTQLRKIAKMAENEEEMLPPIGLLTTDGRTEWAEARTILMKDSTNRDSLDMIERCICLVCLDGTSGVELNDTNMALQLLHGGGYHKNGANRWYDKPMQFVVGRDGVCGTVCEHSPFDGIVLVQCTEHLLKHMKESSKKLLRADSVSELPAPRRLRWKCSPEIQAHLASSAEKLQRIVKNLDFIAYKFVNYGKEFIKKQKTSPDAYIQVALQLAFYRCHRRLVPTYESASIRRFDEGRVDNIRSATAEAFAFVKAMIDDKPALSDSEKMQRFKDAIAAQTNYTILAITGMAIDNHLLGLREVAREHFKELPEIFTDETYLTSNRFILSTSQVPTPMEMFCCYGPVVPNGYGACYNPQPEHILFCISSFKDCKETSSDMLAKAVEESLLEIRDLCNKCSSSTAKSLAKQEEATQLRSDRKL

[2] = target: T2, Choline O-acetyltransferase (Gallus gallus, UniProt Q90YJ9); assay: Compound was tested in vitro for inhibitory activity against chick optic lobe choline acetyltransferase (ChAT)
T2 sequence (Q90YJ9 whole entry): T1 sequence (whole entry)

[3] = target: T3, Choline O-acetyltransferase (Rattus norvegicus, UniProt P32738); assay: Compound was tested in vitro for inhibitory activity against rat choline acetyltransferase (ChAT)
T3 sequence (P32738 whole entry): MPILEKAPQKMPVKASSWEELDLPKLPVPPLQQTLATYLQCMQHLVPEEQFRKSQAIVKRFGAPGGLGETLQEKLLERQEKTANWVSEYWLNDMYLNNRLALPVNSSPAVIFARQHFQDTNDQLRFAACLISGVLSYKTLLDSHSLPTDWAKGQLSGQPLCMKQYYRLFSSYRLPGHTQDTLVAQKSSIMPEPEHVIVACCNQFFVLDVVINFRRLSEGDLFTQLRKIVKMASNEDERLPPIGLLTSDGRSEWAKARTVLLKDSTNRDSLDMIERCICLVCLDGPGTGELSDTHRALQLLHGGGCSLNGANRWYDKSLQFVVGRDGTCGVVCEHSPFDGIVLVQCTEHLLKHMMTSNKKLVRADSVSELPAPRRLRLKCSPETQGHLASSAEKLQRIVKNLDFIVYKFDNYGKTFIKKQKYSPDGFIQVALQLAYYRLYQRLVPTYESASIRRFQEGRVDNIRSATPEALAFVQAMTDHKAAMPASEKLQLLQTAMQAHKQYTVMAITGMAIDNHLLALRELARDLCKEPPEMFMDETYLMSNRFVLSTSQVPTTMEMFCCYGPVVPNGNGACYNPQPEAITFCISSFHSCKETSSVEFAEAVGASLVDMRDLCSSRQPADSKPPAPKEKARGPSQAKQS

[4] = target: T2, Choline O-acetyltransferase; assay: Compound was tested in vitro for inhibitory activity against chick choline acetyltransferase (ChAT)

SMILES | inhibition [1] | other results
C(=C\c1cccc2ccccc12)/c1ccncc1 | 5% | –
Cc1cc2nc(/C=C/c3cc[n+](C)cc3)[nH]c2cc1C | < 1% | –
C[n+]1ccc(/C=N/c2nc3ccccc3[nH]2)cc1 | < 1% | –
CCCC[n+]1ccc(/C=C/c2ncc[nH]2)cc1 | < 1% | –
CCCC[n+]1cccc(/C=C/c2nc3cc(C)c(C)cc3[nH]2)c1 | < 1% | –
Cc1cc2nc(/C=C/c3ccncc3)[nH]c2cc1C | < 1% | –
CCCCCCCCCC[n+]1ccc(/C=C/c2nc3cc(C)c(C)cc3[nH]2)cc1 | < 1% | –
C[n+]1ccc(/C=C/c2cccc3ccccc23)cc1 | 73% | pIC50 [2]: 4.40
CCCC[n+]1ccc(/C=C/c2nc3cc(C)c(C)cc3[nH]2)cc1 | < 1% | –
Cc1cc2nc(/C=C/c3ccc[n+](C)c3)[nH]c2cc1C | < 1% | –
CCC[n+]1ccc(/C=C/c2cccc3ccccc23)cc1 | 80% | pIC50 [3]: 4.52; pIC50 [4]: 4.24; pIC50 [2]: 4.54
Cc1cc2nc(/C=C/c3cccnc3)[nH]c2cc1C | < 1% | –
NC(=O)C[n+]1ccc(/C=C/c2cccc3ccccc23)cc1 | 78% | pIC50 [2]: 4.43
